# Test results taken from patent US20080293696A1, “2-Aminoarylcarboxamides Useful as Cancer Chemotherapeutic Agents” (Bayer Pharmaceuticals Corporation, priority 2004, published 2008).
# System: PAKT/PKB (p-(S473) AKT) in H209 small cell lung carcinoma cells stimulated with Stem Cell Factor
# Assay: PAKT/PKB Cytoblot Assay with H209 cells (SCF-stimulated p-(S473) AKT)
# Assay type: cell-based
# Details: Homo sapiens, NCI-H209, compound 1 hour, SCF 25 ng/mL 5 minutes
# Description: PAKT/PKB Cytoblot Assay Protocol with H209 Cells
# H209 small cell lung carcinoma cells in log phase were plated at 50,000 cells/well in 96-well poly-lysine coated, clear bottom/black-sided plates (BD Cat # 354640) in 100 μl RPMI medium containing 0.1% (w/v) BSA, and incubated overnight at 37° C. in 5% CO2 incubator. The following day, compounds (10 mM stock solutions in DMSO) were added to the plates to generate final concentrations of 0.0, 0.01, 0.03, 0.1, 0.3, 1.0, 3.0 and 10 μM for IC50 determinations and incubated for 1 hour at 37° C. Cells were then left untreated or stimulated with Stem Cell Factor (SCF: Biosource Cat # PHC2116) at a final concentration of 25 ng/mL for 5 minutes at 37° C. in 5% CO2 incubator. The media was then removed using a vacuum manifold and the cells were washed once with Tris Buffered Saline (TBS).
# Cells were then fixed by adding 200 μl of cold 3.7% (v/v) formaldehyde in TBS to each well for 15 minutes at 4° C. After removal of the formaldehyde, the cells were treated with the addition of 50 μl of methanol (at −20° C.) to each well for 5 minutes. After removal of the methanol, […] of 1% (w/v) BSA in TBS was added to each well to block non-specific antibody binding sites and the plate was incubated at room temperature for 30 minutes.
# After removal of the blocking buffer, 50 μl of p-(S473) AKT rabbit polyclonal antibody (Cell Signaling Cat # 9277S) was added at a dilution of 1:250 in 0.1% (w/v) BSA in TBS, and the plate was incubated at room temperature for 1 hour. Plates were then washed 3 times with cold TBS containing 0.05% (v/v) Tween 20 (TBS-T) and […] of Horseradish peroxidase (HRP)-conjugated goat-anti-rabbit antibody (Amersham Cat # NA934V) at a dilution of 1:250 in TBS-T was added and the plate was incubated at room temperature for 1 h. After washing with ice-cold TBS-T four times, 100 μl of Enhanced Chemiluminescence (ECL) reagent (Amersham Cat# RPN2209) was added to each well and mixed on a mini-orbital shaker for 1 min. The plate was then read on a Perkin Elmer Victor 5 Multilabel Counter (#1420-0421).
# [1] = group: between 500 nM and 1 μM (units in value)
SMILES,IC50 (group: less than 500 nM),IC50 (group: between 1 and 3 μM),further results
"CNC(=O)c1cc(CNc2ccc(F)cc2C(=O)Nc2ccc3c(c2)OC(F)(F)O3)ccn1 [Example 31, 4-{[(2-{[(2,2-difluoro-1,3-benzodioxol-5-yl)amino]carbonyl}-4-fluorophenyl)amino]methyl}-N-methylpyridine-2-carboxamide]",< 500 nM,,
"CNC(=O)c1cc(CNc2cc(F)ccc2C(=O)Nc2ccc3c(c2)OC(F)(F)C(F)(F)O3)ccn1 [Example 32, 4-{[(5-fluoro-2-{[(2,2,3,3-tetrafluoro-2,3-dihydro-1,4-benzodioxin-6-yl)amino]carbonyl}phenyl)amino]methyl}-N-methylpyridine-2-carboxamide]",< 500 nM,,
"CNC(=O)c1cc(CNc2cc(F)ccc2C(=O)Nc2ccc3c(c2)OC(F)(F)O3)ccn1 [Example 33, 4-{[(2-{[(2,2-difluoro-1,3-benzodioxol-5-yl)amino]carbonyl}-5-fluorophenyl)amino]methyl}-N-methylpyridine-2-carboxamide]",< 500 nM,,
"CNC(=O)c1cc(CNc2ccc(F)cc2C(=O)Nc2ccc3c(c2)OC(F)(F)C(F)(F)O3)ccn1 [Example 34, 4-{[(4-fluoro-2-{[(2,2,3,3-tetrafluoro-2,3-dihydro-1,4-benzodioxin-6-yl)amino]carbonyl}phenyl)amino]methyl}-N-methylpyridine-2-carboxamide]",< 500 nM,,
"N#Cc1cc(CNc2cc(F)c(F)cc2C(=O)Nc2ccc3c(c2)OC(F)(F)O3)ccn1 [Example 36, 2-{[(2-cyanopyridin-4-yl)methyl]amino}-N-(2,2-difluoro-1,3-benzodioxol-5-yl)-4,5-difluorobenzamide]",,1000 to 3000 nM,
"CNC(=O)c1cc(CNc2cc(F)c(F)cc2C(=O)Nc2ccc3c(c2)OC(F)(F)C(F)(F)O3)ccn1 [Example 37, 4-{[(4,5-difluoro-2-{[(2,2,3,3-tetrafluoro-2,3-dihydro-1,4-benzodioxin-6-yl)amino]carbonyl}phenyl)amino]methyl}-N-methylpyridine-2-carboxamide]",< 500 nM,,
"N#Cc1cc(CNc2cc(F)c(F)cc2C(=O)Nc2ccc3c(c2)OC(F)(F)C(F)(F)O3)ccn1 [Example 38, 2-{[(2-cyanopyridin-4-yl)methyl]amino}-4,5-difluoro-N-(2,2,3,3-tetrafluoro-2,3-dihydro-1,4-benzodioxin-6-yl)benzamide]",,,IC50 [1]: 500 to 1000 nM
"O=C(Nc1ccc2c(c1)OC(F)(F)C(F)(F)O2)c1ncncc1NCc1ccncc1 [Example 39, 5-[(pyridin-4-ylmethyl)amino]-N-(2,2,3,3-tetrafluoro-2,3-dihydro-1,4-benzodioxin-6-yl)pyrimidine-4-carboxamide]",,1000 to 3000 nM,
"O=C(Nc1ccc2c(c1)C(F)(F)OC(F)(F)O2)c1ccccc1NCc1ccnc(C2=NCCN2)c1 [Example 40, 2-({[2-(4,5-dihydro-1H-imidazol-2-yl)pyridin-4-yl]methyl}amino)-N-(2,2,4,4-tetrafluoro-4H-1,3-benzodioxin-6-yl)benzamide]",,,IC50 [1]: 500 to 1000 nM
"O=C(Nc1ccc2c(c1)OC(F)(F)O2)c1cc(F)ccc1NCc1ccnc(C2=NCCN2)c1 [Example 41, N-(2,2-difluoro-1,3-benzodioxol-5-yl)-2-({[2-(4,5-dihydro-1H-imidazol-2-yl)pyridin-4-yl]methyl}amino)-5-fluorobenzamide]",,1000 to 3000 nM,
"CN(C)C(=O)c1cc(CNc2ccc(F)cc2C(=O)Nc2ccc3c(c2)OC(F)(F)O3)ccn1 [Example 42, 4-{[(2-{[(2,2-difluoro-1,3-benzodioxol-5-yl)amino]carbonyl}-4-fluorophenyl)amino]methyl}-N,N-dimethylpyridine-2-carboxamide]",,1000 to 3000 nM,
"CCNC(=O)c1cc(CNc2cc(F)c(F)cc2C(=O)Nc2ccc3c(c2)OC(F)(F)C(F)(F)O3)ccn1 [Example 43, 4-{[(4,5-difluoro-2-{[(2,2,3,3-tetrafluoro-2,3-dihydro-1,4-benzodioxin-6-yl)amino]carbonyl}phenyl)amino]methyl}-N-ethylpyridine-2-carboxamide]",,,IC50 [1]: 500 to 1000 nM
